Bounds are passed on as bounds.

The term melting point denotes the temperature, or range, at which the solid turns liquid.

As for `O=C(Nc1cccc(C(F)(F)F)c1)c1ccccc1NCCc1ccncc1`, the melting point is 151 to 152 °C.

`CCOC(=O)c1cc(C=Cc2ccc(O)c(OC)c2)n[nH]1` yielded a melting point of 99 to 101 °C.

`Cc1ccc(S(=O)(=O)Oc2ccc(C=O)cc2OS(=O)(=O)c2ccc(C)cc2)cc1` gave a melting point of 95 to 97 °C.

Compound `CS(=O)Cc1ccc(C(=O)c2ccc(Cl)cc2)cc1` (stereo unspecified) displayed a melting point of 116 to 118 °C.

`O=C(O)c1ccc2c(c1)C(=O)c1ccccc1S2(=O)=O`: the melting point was 276 °C.

As for `CC(C)c1ccc(-c2ccc(/C=C/C(=O)Nc3ccc(CN(C)C4CCOCC4)cc3)s2)cc1`, the melting point was 187 to 189 °C.

With `CCCCOCCOc1ccc(-c2cc(/C=C(\C)C(=O)O)c3c(c2)CCCN3C)cc1`, the melting point is 133 to 134 °C.

`Cc1cccc(C)c1C=Nc1cc(Cl)c(N=CN(C)C)c(Cl)c1`: the melting point was 123 to 124 °C.

In turn, `CC(C)(C)CC(C)(C)NC(=O)C1=C(c2ccccc2)C(c2ccccc2)OC1=O` (stereo unspecified) yielded a melting point of 110 to 111 °C.

In turn, `c1cnc2ccc(Cn3nnc4ccc(-n5ccnc5)nc43)cc2c1` registered a melting point of 227 to 230 °C.

`Cc1ccc(S(=O)(=O)N2C(=O)[C@H]3CC=C[C@H]32)cc1`: the melting point lay within 93 to 95 °C.

The compound `CC(C)Nc1nc(N)c(C(=O)N=CNNS(=O)(=O)N(C)C)nc1Cl` registered a melting point of 172 °C.

With `CN(C)C1(c2ccccc2)CCC2(NCCc3c2[nH]c2ccccc32)C(Sc2ccccc2)C1` (stereo unspecified), the melting point fell in the range of 171 to 173 °C.

Compound `CCCCCCO[C@H](C)C(=O)Oc1ccc(C(=O)O)cc1` showed a melting point of 67 to 72 °C.

In turn, `CCCCn1c(=O)[nH]c2cccnc2c1=O` registered a melting point of 200 to 210 °C.

As for `COc1cc2c(c3c1OC(C)(C)C3)C(c1cccc(N(CC(N)=O)S(C)(=O)=O)c1)=NC(C)(C)C2`, the melting point fell in the range of 190 to 191 °C.

`CCc1ccc2c(c1)c(-c1ccccc1Cl)c(C(=O)O)c(=O)n2C` returned a melting point of 200 to 201 °C.

As to `CCOC(=O)c1c(CCc2ccc(O)cc2)oc2ccc(C#N)cc12`, the melting point fell in the range of 182 to 183 °C.

Consider `Nc1ccc2nc(-c3ccc4c(c3)OCO4)ncc2c1`, for which the melting point was in the range of 191 to 192 °C.

Compound `O=[N+]([O-])c1ccc(N2C[C@H]3CN(Cc4ccccc4)C[C@H]3C2)cc1` returned a melting point of 121 to 123 °C.

`O=c1ncc(Cl)cn1CC(O)CO` (stereo unspecified) had a melting point of 136 to 138 °C.

Consider `CN1CCN(C2c3ccccc3C=Cc3ccc(Br)cc32)CC1` (stereo unspecified), for which the melting point fell in the range of 128 to 130 °C.

With `COc1ccccc1-c1nc2cc(NC(=O)c3c(C(=O)O)cnn3C)ccn2n1`, the melting point is 283 °C.

`CC1(C)OC(=O)C(Br)(CCn2cccc2C(=O)c2ccccc2)C(=O)O1` returned a melting point of 89 to 91 °C.

For the compound `Cc1nc(CCCCCn2cnc3c2c(=O)n(C)c(=O)n3C)no1`, the melting point lay in the range of 160 to 162 °C.

`CCOC(=O)CCn1c(=O)c2ccccc2n(CCCCl)c1=O` came in with a melting point of 80 to 81 °C.

`C[C@H]1C(=O)N2[C@H](c3ccc4c(c3)OCO4)c3[nH]c4ccccc4c3C[C@@H]2C(=O)N1C` gave a melting point of 219 to 220 °C.

Regarding `CC(C)(C)OC(=O)N1CC(CCl)c2ccc([N+](=O)[O-])cc21` (stereo unspecified), the melting point fell in the range of 111 to 112 °C.

`CNC(=O)C(Cc1ccccc1)NC(=O)Nc1n[nH]c(=S)s1` (stereo unspecified): the melting point was determined as 228 °C.

Turning to `COC(=O)N1CCCC2(Cc3ccc(Br)cc3)C(=O)N(c3cc(Cl)nc(Cl)c3)C(=O)N12` (stereo unspecified), the melting point was 81 °C.

The compound `CSc1ccc(N)c(C(=O)NN)c1` yielded a melting point of 124 to 127 °C.

In turn, `CCOC(=O)C1=Cc2cccc(/C=C/C(=O)O)c2OCC1` yielded a melting point of 166 to 168 °C.

`CC(=O)c1ccc(-c2ccc(O)c(F)c2)cc1` showed a melting point of 155 to 158 °C.

For the compound `Cn1nc(Cl)c(C(=O)C(Br)c2ccccc2)c1Cl` (stereo unspecified), the melting point is 74.5 to 75.5 °C.

Consider `CC(=O)C1=C(O)C(=C(C)Nc2ccccc2Cl)C(=O)OC1=O`, for which the melting point was in the range of 143 to 145 °C.

`CC(=O)N(C)c1scc(C)c1C(=O)c1ccccc1` came in with a melting point of 122 °C.

As to `O=C1OC(CCC#Cc2ccccc2)C(O)=C1O` (stereo unspecified), the melting point was 145 to 146 °C.

Regarding `O=C(O)CCCc1c([N+](=O)[O-])cc(O)c(O)c1[N+](=O)[O-]`, the melting point is 165 to 170 °C.

With `Cc1ccc(Sc2ncnc3ccccc23)cc1`, the melting point came to 96 °C.

Turning to `CCN1CCCC(NC(=O)c2ccccc2Nc2ccnc3c(C(F)(F)F)cccc23)C1` (stereo unspecified), the melting point lay in the range of 212 to 213 °C.

Regarding `O=C(O)c1ccccc1-c1c2ccc(=O)cc-2oc2cc(O)ccc12`, the melting point fell in the range of 185 to 190 °C.

`COc1cc(OC)nc(NC(=O)OC(C)C)n1` showed a melting point of 51 to 54 °C.

In the case of `O=C(O)C1=CCC2CC(=O)N12` (stereo unspecified), the melting point lay within 172 to 174 °C.

Consider `CCCCc1nc(Cl)c(CO)n1Cc1ccc(-c2ccccc2-c2nnnn2C(c2ccccc2)(c2ccccc2)c2ccccc2)cc1`, for which the melting point was 95 to 98 °C.

`O=C(O)c1csnc1-c1ccc(C(F)(F)F)cc1`: the melting point was 195 to 196 °C.

Compound `CCC(CC)COc1cccc2nc(C)c(C(=O)O)c(N)c12` had a melting point of 145 to 151 °C.

As to `NC(=O)CCN1CC2CN(Cc3ccccc3)CC(C1)O2`, the melting point fell in the range of 157 to 159 °C.

Regarding `O=C(O)CNC(=O)COc1nc(F)c(Cl)cc1Cl`, the melting point lay within 155 to 157 °C.

`CC1O[C@@](Cn2cncn2)(c2ccc(Cl)cc2Cl)[C@@H](C)N1S(C)(=O)=O` (relative stereo): the melting point lay within 160 to 170 °C.

For `CCCc1oc(-c2ccccc2)nc1COc1ccc(C=O)cc1`, the melting point lay in the range of 76 to 77 °C.

In the case of `O=C(NC1CCOCC1)c1cnccc1C(F)(F)F`, the melting point was 149 to 150 °C.

Regarding `CC(=O)N(C(C)=O)c1c(OCc2ccccc2)cc(Br)cc1[N+](=O)[O-]`, the melting point is 148 °C.

`CC(C)c1sc(C(O)(C(F)(F)F)C(F)(F)F)nc1-c1ccc(S(C)(=O)=O)cc1` showed a melting point of 122 to 123 °C.

Regarding `COC(=O)c1cc(-c2ccc(C)cc2)n(Cc2ccc(Cl)cc2Cl)n1`, the melting point came out at 105 °C.

For the compound `S=C=Nc1ccc(-c2nc(-c3ccco3)no2)cc1`, the melting point was 136 to 137 °C.

On to `CN(C)C(=O)Nc1cc(Br)ccc1N1CCc2ccccc21`, for which the melting point was 119 to 121 °C.

`COc1cc(C)nc(N(C)C#N)n1` had a melting point of 123 °C.

Consider `CCc1cc(Oc2ncc(C(F)(F)F)cc2Cl)nn1C(=O)NC`, for which the melting point was 85 to 87 °C.

Compound `FC(F)(F)COc1ccc(-c2nc3n(c2-c2ccc(OCC(F)(F)F)cc2)CCS3)cc1` gave a melting point of 163 to 164 °C.

The compound `OCC#Cc1cnc(Cl)nc1NC1CCCC1` returned a melting point of 162 to 163 °C.

Take `CS(=O)(=O)Nc1ccccc1OC/C=C/CN1CCC(OC(c2ccccc2)c2cccs2)CC1` (stereo unspecified): the melting point is 114 to 117 °C.

Take `Cc1nc(C)c(C(C)(O)c2ccsc2)o1` (stereo unspecified): the melting point is 132 to 133 °C.

As to `COc1ccc2c(c1)cc(C(=O)c1ccc(C)cc1)n2C`, the melting point was in the range of 149 to 151 °C.

`COC(=O)C(C)Oc1ccc(Oc2ccc(Cl)cc2F)cc1` (stereo unspecified) showed a melting point of 55 to 57 °C.

Regarding `CCOc1ccc(-c2cn(C)c(SCC)n2)cc1`, the melting point worked out at 98.2 °C.

The compound `CC(C)CCOCc1cc(N2N=C(C(N)=O)NC2c2ccccc2)ccc1Cl` (stereo unspecified) yielded a melting point of 174 to 176 °C.

`CCOC(=O)CC[C@H](NC(=O)c1ccc(I)cc1)C(=O)OCC` displayed a melting point of 105 to 106 °C.

In the case of `Nc1nc2ccccc2c2c1ncn2CCO`, the melting point is 260 to 262 °C.

In turn, `O=c1c2c(CCC(F)(F)F)n[nH]c2c2cccnc2n1-c1ccccc1` yielded a melting point of 272 to 274 °C.

As for `CC(=O)CCc1ccc2c(c1)Cc1cc([N+](=O)[O-])ccc1-2`, the melting point fell in the range of 159 to 162 °C.

The compound `COc1cc(C#N)ccc1C(=O)Nc1cc(Cl)c(Cl)cc1N` yielded a melting point greater than 250 °C.

For `CCN1c2ncccc2C(=O)N(C)c2ccc(-c3cnn(C(C)=O)c3)nc21`, the melting point lay in the range of 186 to 188 °C.

As for `O=C(Sc1ccc(O)cc1)c1ccc(CSc2ccc(O)cc2)cc1`, the melting point was in the range of 202 to 209 °C.

With `COc1cc(C(=O)c2cccs2)cc([N+](=O)[O-])c1OC`, the melting point was in the range of 102 to 104 °C.

`CCOC(=O)c1cn(-c2ccccc2)nc1OCc1ccc(OCc2nc(-c3ccco3)oc2C)c(OC)c1`: the melting point was in the range of 150 to 151 °C.

`CNC1CN(C(=O)Nc2ccc(C(F)(F)F)cc2)N=C1c1ccc(Cl)cc1` (stereo unspecified) came in with a melting point of 148 to 149 °C.

On to `Cc1nc2ccccc2nc1OCc1nc(Cl)cc(N2CCCC2)n1`, for which the melting point fell in the range of 136 to 140 °C.

`O=C(O)CCCCNC(=O)c1ccccc1NC(=O)c1ccccc1O`: the melting point was 168 to 170 °C.

Turning to `Cc1oc(-c2ccccc2)nc1CCOc1ccc(/C=C/C#N)cn1`, the melting point lay in the range of 116 to 117 °C.

In turn, `CCCCSc1ccc(-c2cc3ccccc3[nH]2)cc1` gave a melting point of 189 to 191 °C.

In turn, `COC1=C(OC)C(=O)C(CCCCCCCCCC=O)=C(C)C1=O` came in with a melting point of 44.5 to 46.5 °C.

`CCOC(=O)C(C)OCc1cc2cc(C(F)(F)F)ccc2n1S(=O)(=O)c1cc(OC)ccc1OC` (stereo unspecified) had a melting point of 130 to 132 °C.

Compound `O=C(c1ccc(C(=O)c2ccc(F)c([N+](=O)[O-])c2)cc1)c1ccc(F)c([N+](=O)[O-])c1` registered a melting point of 221 to 223 °C.

For the compound `Cc1cc([N+](=O)[O-])cnc1Oc1ccc(Cl)c(C(F)(F)F)c1`, the melting point is 95 to 97 °C.

As for `CCOC(=O)c1ccc(NC(=O)c2cc(Cl)ccc2OC)cc1OCC`, the melting point fell in the range of 108 to 111 °C.

For `CC(C)(C)S(=O)(=O)c1cccc(-c2nc(=O)c3ccccc3s2)n1`, the melting point was 234 to 235 °C.

In turn, `CN=CN(C)c1ccccc1C#N` showed a melting point of 60 to 63 °C.

Consider `O=S(=O)(CC1CCCCN1S(=O)(=O)c1ccccc1)c1ccc(Cl)cc1` (stereo unspecified), for which the melting point fell in the range of 129 to 131 °C.

For `OC[C@H](O)[C@@H](O)[C@H](O)[C@H](O)C=NN(Cc1ccccc1)c1ccccc1`, the melting point was 124 to 128 °C.

`CN1CC(CCO)N2c3ccccc3Oc3ccccc3C2C1` (stereo unspecified) showed a melting point of 138 to 139 °C.

As to `Cc1c(C)c2c(c(C)c1NC(=O)C(C)C)CC(C)(C)O2`, the melting point is 136 to 138 °C.
